From patent publication US8058258B2, “Methods for cancer therapy and stem cell modulation” (Agency for Science, Technology and Research, priority 2006, dated 2011) come the findings set out here.

Where a SMILES comes first, the peptide text is derived from it. [ ]: non-standard residue; d: D form. The star is where a group is joined. Nle = CCCC[C@H](N)C(=O)O; Nva = CCC[C@H](N)C(=O)O; Cbz = O=C(OCc1ccccc1)*

Type in all cases: cell-based, human
In series [1] the test system is EZH2 and SUZ12 protein levels in MCF-7 cells. Nature of the series: Proteosome inhibitor rescue of 3-deazaneplanocin-induced PRC2 depletion (Western blot). Particulars: 3-deazaneplanocin 18 h then MG132 (5 μM), LLNL (50 μM) or MG115 (20 μM) for 8 h. As for the experimental part:
FIG. 1C depicts the effect of 3-deazaneplanocin in the presence of proteosome inhibitors on EZH2 and SUZ12 protein levels. MCF-7 cells were treated with 3-deazaneplanocin for 18 h, followed by the addition of proteosome inhibitor MG132 (5 μM), LLNL (50 μM), MG115 (20 μM) […] for 8 h. Cells were harvested for Western blot analysis of EZH2 and SUZ12.
Cell pellets were first lysed in RadioImmuno Precipitation Assay (RIPA) buffer, consisting of an aqueous solution of 25 mM Tris-HCl pH 7.6, 150 mM NaCl, 1% Nonidet-P 40 (NP-40), 1% sodium deoxycholate and 0.1% sodium dodecylsulfate (SDS), before further sonicated using a tissue homogeniser to release all the proteins. Equal amounts of protein were separated on SDS-polyacrylamide gels and transferred to polyvinylidene difluoride (PVDF) membranes. The blots were probed with antibodies against: EED (07-368), SUZ12 (07-379), SUV39H1 (07-550), BMI1 (05-637), tri-methylated H3-K27 (07-449), tri-methylated H3-K9 (07-442) and Acetyl-Histone H3 (06-599), and were purchased from Upstate. EZH2 (AC22) and Histone H3 (3H1) were from Cell Signaling. Antibodies against DNA methyl-transferases DNMT1 and DNMT3B were purchased from Alexis Biochemicals.
It has previously been reported that the stability of PRC2 proteins is regulated through proteosome-mediated mechanism. It was therefore tested whether the depletion of PRC2 proteins by 3-deazaneplanocin results from the protein degradation. MCF-7 cells were treated with 3-deazaneplanocin in the presence or absence of three individual proteosome inhibitors MG132, LLNL, and MG115 to test if these treatments would rescue 3-deazaneplanocin-induced PRC2 depletion.

Series [2] has as its system MCF-7 cells. As to the kind of experiment: Microarray gene expression analysis (Illumina BeadChip) in MCF-7 cells.
Description: (§1) Cells were maintained in DMEM supplemented with 10% fetal bovine serum with glutamine, penicillin, and streptomycin. For drug treatment, cells were seeded the day before the drug treatment. Cells were treated with 5 μM 3-Deazaneplanocin A or 2 μM 5-aza-2′-deoxycytidine (5-AzaC; Sigma) for 72 hours and trichostatin A (TSA; Sigma) at 100 nM for 24 hours. For co-treatment of cells with 5-AzaC and TSA, 5-Aza was added for 48 hours and followed by TSA for 24 hours.
The Smartpool siRNA duplexes of selected PRC2 targets and the non-targeting control were purchased from Dharmacon (Lafayett, Colo.). […] Cells were transfected with 50 nM final concentration of siRNA duplexes using Lipofectamine 2000 (Invitrogen) following the manufacturer's instructions.
Total RNA was isolated from cell lines using Trizol (Invitrogen) and was converted to cDNA using an RNA Amplification kit (Ambion). The microarray hybridisation was performed using the Illumina Gene Expression BeadChip (Illumina) and data analysis was performed using GeneSpring software from Agilent Technologies.
The effects on gene expression were analysed using an Illumina Gene Expression BeadChip. […] To be inclusive for the subsequent analysis, all 1402 genes were considered to be potential PRC2 target genes.
To identify the PRC2 targets specifically repressed in breast cancer cells, the expression profiles of the 140 putative PRC2 target genes in MCF-7 cells and MCF10A cells were compared by gene clustering analysis (FIG. 4C).
In series [3] the test system is PRC2 target genes TGFBI, KRT17, FBXO32, ANXA8, DLX2. Nature of the series: Real-time RT-PCR of representative PRC2 targets in MCF-7 cells.
Description: I: MCF-7 cells were untreated or treated with 3-deazaneplanocin (DZNep), 5-azacytidine (5-AzaC) or a combination of 5-azacytidine and trichostatin A (AZA+TSA), and RNA was isolated for gene expression analysis.
as §1
Total RNA was isolated from cell lines using Trizol (Invitrogen) and was converted to cDNA using an RNA Amplification kit (Ambion). […] Quantitative real-time PCR was performed on a PRISM 7900 sequenced detector (Applied Biosystems) using TaqMan probes (Applied Biosystems). Samples were normalized to the levels of 18S ribosomal RNA.
The array results were further confirmed by real-time RT-PCR for representative PRC2 targets.

For `CC(C)C[C@@H](C=O)NC(=O)[C@H](CC(C)C)NC(=O)[C@H](CC(C)C)NC(=O)OCc1ccccc1` [MG132] (Cbz-Leu-Leu-Leu-aldehyde), the “downregulation of EZH2 and SUZ12 protein levels in response to 3-deazaneplanocin” value (from here on “downregulation”) in series [1] is reported as “prevented the downregulation”.

Regarding `CCCC[C@@H](C=O)NC(=O)[C@H](CC(C)C)NC(=O)[C@H](CC(C)C)NC(C)=O` [LLNL] (Ac-Leu-Leu-[Nle]-aldehyde), the “downregulation” value in series [1] is “prevented the downregulation”.

With `CCC[C@@H](C=O)NC(=O)[C@H](CC(C)C)NC(=O)[C@H](CC(C)C)NC(=O)OCc1ccccc1` [MG115] (Cbz-Leu-Leu-[Nva]-aldehyde), in series [1], the “downregulation” value was “prevented the downregulation”.

For `Nc1ncn([C@H]2C[C@H](O)[C@@H](CO)O2)c(=O)n1` [5-AzaC, 5-aza-2′-deoxycytidine, reference compound], the “reactivation of the 140 PRC2 targets in general, in comparison with 3-deazaneplanocin” value in series [2] (array, 5-AzaC 2 μM, TSA 100 nM) is “did not result in the significant reactivation”. Moreover, in series [3], the “induction of TGFBI, KRT17 and FBX032 (real-time RT-PCR)” value was “not”.

B1: SUZ12 siRNA: siRNA targeting SUZ12 mRNA; stem-loop RNA from oligonucleotides SEQ ID NO: 1 and 2 (nucleic acid)
chain 1: GATCCCCGTCGCAACGGACCAGTTAATTCAAGAGATTAACTGGTCCGTTGCGACTTTTTGGAAA
chain 2: TCGATTTCCAAAAAGTCGCAACGGACCAGTTGATCTCTTGAATTAACTGGTCCGTTGCGACGGG
modifications: expressed or natural sequence; the letters are possibly those of the target site
As to B1, the “number of genes upregulated ≧2-fold after siRNA treatment” value in series [2] (siRNA knockdown of PRC2 component) came to 572 genes.
